From PMC6198068, “Discovery of a Novel Nav1.7 Inhibitor From Cyriopagopus albostriatus Venom With Potent Analgesic Efficacy” (Frontiers in Pharmacology, 2018)
Where a SMILES comes first, the peptide text is derived from it. Bridges are numbered along the chain shown (N, C = ends).

Experiments:
Human Nav1.9 = test: Whole-cell patch-clamp, Nav1.9 in ND7/23 cells; assay type: cell-based; conditions: up to 10 μM, 50 ms to −40 mV from −120 mV, in presence of 1 μM TTX
Nav1.7 = target: T1, Nav1.7 (Homo sapiens, UniProt Q15858); test: I–V relationships and voltage-dependent activation of Nav1.7; assay type: cell-based; conditions: 0.2 μM, n = 10
T1 construct: expressed in transfected cells; host or cells: HEK293T
T1 sequence (O60939 30-215): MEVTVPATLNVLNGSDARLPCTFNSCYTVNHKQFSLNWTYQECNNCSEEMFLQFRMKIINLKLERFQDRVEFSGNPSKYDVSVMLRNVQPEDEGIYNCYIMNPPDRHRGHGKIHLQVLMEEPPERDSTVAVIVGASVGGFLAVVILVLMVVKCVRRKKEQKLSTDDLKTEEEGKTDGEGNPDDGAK
T1 sequence (Q15858 other isoform, or with tags, fused parts or gaps): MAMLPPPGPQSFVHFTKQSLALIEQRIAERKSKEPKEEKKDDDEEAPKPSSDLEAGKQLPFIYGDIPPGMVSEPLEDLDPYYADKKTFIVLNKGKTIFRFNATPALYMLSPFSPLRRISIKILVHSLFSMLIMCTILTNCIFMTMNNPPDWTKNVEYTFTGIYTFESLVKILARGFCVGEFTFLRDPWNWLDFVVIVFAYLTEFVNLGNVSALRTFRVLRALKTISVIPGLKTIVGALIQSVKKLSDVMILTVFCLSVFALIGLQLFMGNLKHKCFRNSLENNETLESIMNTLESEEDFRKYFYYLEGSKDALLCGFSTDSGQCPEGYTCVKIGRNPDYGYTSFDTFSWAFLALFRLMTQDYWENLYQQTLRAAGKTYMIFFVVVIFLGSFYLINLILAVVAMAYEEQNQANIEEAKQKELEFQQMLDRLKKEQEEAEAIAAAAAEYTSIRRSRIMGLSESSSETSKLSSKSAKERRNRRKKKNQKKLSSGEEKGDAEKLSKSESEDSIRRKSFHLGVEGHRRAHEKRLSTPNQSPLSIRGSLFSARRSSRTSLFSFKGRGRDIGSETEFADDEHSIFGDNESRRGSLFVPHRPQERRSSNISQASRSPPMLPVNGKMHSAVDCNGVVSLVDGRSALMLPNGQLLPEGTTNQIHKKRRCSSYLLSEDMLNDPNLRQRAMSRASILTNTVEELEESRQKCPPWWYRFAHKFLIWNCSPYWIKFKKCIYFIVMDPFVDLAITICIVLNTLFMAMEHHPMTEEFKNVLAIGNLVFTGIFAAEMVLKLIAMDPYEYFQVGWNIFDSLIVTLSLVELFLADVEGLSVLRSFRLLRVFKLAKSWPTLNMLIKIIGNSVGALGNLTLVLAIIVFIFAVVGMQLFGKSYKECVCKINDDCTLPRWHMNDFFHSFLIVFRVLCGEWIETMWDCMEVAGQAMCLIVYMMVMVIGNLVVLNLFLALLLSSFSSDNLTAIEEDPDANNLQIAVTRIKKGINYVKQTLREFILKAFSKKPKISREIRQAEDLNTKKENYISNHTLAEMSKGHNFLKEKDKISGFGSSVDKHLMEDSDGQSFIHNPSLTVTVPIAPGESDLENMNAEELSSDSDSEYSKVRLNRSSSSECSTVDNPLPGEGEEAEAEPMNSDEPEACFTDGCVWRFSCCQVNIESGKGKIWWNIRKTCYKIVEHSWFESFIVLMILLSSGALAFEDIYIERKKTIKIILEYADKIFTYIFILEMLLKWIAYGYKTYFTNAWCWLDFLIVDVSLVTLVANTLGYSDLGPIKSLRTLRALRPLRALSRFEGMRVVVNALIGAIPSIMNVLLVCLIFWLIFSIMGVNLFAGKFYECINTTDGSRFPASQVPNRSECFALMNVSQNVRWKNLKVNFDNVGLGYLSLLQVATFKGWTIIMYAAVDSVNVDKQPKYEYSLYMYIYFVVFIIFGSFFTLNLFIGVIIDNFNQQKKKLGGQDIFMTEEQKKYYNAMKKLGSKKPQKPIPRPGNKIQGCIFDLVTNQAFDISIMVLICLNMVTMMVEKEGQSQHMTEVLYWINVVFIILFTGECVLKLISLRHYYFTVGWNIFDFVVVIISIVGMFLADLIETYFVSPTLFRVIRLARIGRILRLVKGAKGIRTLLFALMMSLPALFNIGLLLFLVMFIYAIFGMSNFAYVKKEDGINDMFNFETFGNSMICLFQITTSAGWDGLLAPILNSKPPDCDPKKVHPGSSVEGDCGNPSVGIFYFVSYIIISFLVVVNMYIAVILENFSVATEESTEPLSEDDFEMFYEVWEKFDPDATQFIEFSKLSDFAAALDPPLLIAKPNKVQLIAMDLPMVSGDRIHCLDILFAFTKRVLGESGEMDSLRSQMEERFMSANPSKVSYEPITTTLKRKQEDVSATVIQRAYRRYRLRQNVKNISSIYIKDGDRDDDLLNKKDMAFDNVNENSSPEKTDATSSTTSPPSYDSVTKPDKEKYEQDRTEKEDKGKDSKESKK
T1 sequence (Q07699 19-218, further chain): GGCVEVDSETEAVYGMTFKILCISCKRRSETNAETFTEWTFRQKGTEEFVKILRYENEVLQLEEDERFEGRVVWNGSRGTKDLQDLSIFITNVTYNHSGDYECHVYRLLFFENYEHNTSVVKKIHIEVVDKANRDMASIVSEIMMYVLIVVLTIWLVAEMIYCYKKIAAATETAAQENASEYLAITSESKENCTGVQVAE
Text: The cDNA genes encoding rat Nav1.4 and human Nav1.7 were subcloned into vectors pRGB4 and pcDNA3.1-mod, respectively. Mutations of rNav1.4 (N655D, Q657E, and N655D/Q657E) and hNav1.7 (D816N, E818Q, and D816N/E818Q) were constructed using the Gene Tailor Site-Directed Mutagenesis system (Invitrogen, Carlsbad, CA, United States), according to the manufacturer’s instructions. Nav1.2–Nav1.7 and mutant plasmids together with eGFP were transiently transfected into HEK293T cells while Nav1.8 together with eGFP was transiently transfected into ND7/23 cells by Lipofectamine 2000 (Invitrogen, Carlsbad, CA, United States). Additionally, plasmids β1- and β2-eGFP encoding the human β1 and β2 subunits, respectively, were co-transfected with those encoding WT Nav1.7 and Nav1.7 mutations in HEK293T cells. […] Cells with green fluorescent protein fluorescence were selected for whole-cell patch-clamp recordings 24 h after transfection.
Whole-cell patch-clamp recordings were performed at room temperature (20–25°C) using an EPC 10 USB Patch Clamp Amplifier (HEKA, Elektronik, Lambrecht, Germany). […] Data was analyzed by software Igo Pro 6.10A (WaveMetrics, Lake Oswego, OR, United States), SigmaPlot 10.0 (Sigma-Aldrich, St. Louis, MO, United States), OriginPro 8 (OriginLab Corp., Northampton, MA, United States), and GraphPad Prism 5 (GraphPad Software, San Diego, CA, United States). […]

CC(C)C[C@H](NC(=O)[C@H](CC(=O)O)NC(=O)[C@H](Cc1ccc(O)cc1)NC(=O)[C@H](CCCCN)NC(=O)[C@@H]1CSSC[C@@H]2NC(=O)[C@H](CCCCN)NC(=O)[C@H](CC(=O)O)NC(=O)[C@H](CC(N)=O)NC(=O)[C@H](CO)NC(=O)[C@@H]3CCCN3C(=O)[C@H](CC(N)=O)NC(=O)[C@@H]3CSSC[C@H](NC(=O)[C@H](C(C)C)NC(=O)[C@H](CC(C)C)NC(=O)[C@H](CO)NC(=O)[C@H](CO)NC(=O)[C@H](CO)NC(=O)[C@H](CCCCN)NC(=O)[C@H](CSSC[C@H](NC(=O)[C@H](C)N)C(=O)N[C@@H](CC(C)C)C(=O)NCC(=O)N[C@@H](Cc4ccccc4)C(=O)NCC(=O)N[C@@H](CCC(=O)O)C(=O)N[C@@H](CCCCN)C(=O)N3)NC2=O)C(=O)N[C@@H](CO)C(=O)N[C@@H](CCC(N)=O)C(=O)N[C@@H](CCCCN)C(=O)N[C@@H](Cc2c[nH]cn2)C(=O)N[C@@H](CCCCN)C(=O)N[C@@H](Cc2c[nH]c3ccccc23)C(=O)N1)C(=O)O [Ca2a] (H-ACLGFGEKCNPSNDKCCKSSSLVCSQKHKWCKYDL-OH; disulfide 2-17, 9-24, 16-31 (inferred); N-terminus and C-terminus assumed)
inhibitory effect on Nav1.9 currents (Human Nav1.9): no inhibitory effects
half-activation voltage of Nav1.7 (Nav1.7; control −20.1 ± 1.1 mV, mean ± SEM): −18.9 ± 1.3 mV
threshold of initial activation voltage, active voltage of peak current, reversal potential of Nav1.7 (I–V) (Nav1.7): did not change
